Experimental data taken from patent publication US20170252442A1, “PHOTOHEXER COMPOUNDS AND PHARMACEUTICAL COMPOSITION AND USE THEREOF” (RAINBOW PHARMATECH LLC, priority 2014, published 2017).

What was measured:
SGC7901 cells = experiment: MTT assay, photodynamic therapy on SGC7901 cells; type: cell-based, human
Text: (§1) The cells in logarithmic growth phase were collected and inoculated on 24-well culture plates. When reaching 70%-80% confluence, cells were divided randomly into the following groups: control (the parallel control group without photosensitizer and irradiation), irradiation (irradiation treatment alone without photosensitizer); (photosensitizer treatment alone without irradiation), photodynamic treatment (treatment by photosensitizer in combination with irradiation). For the photosensitizer alone treatment group and photodynamic treatment group, an appropriate amount of Photohexer-1 (P-1) or Photohexer-2 (P-2) was respectively added away from light to give a final concentration of 0.8, 1.6, 3.2, 6.4 μM. Each group set 3 replicates. Cells were incubated with the active agent, different treatments were carried out according to the grouping. […] After treatment and digestion of each group of cells, it was inoculated into a 96-well plate at 100 μL/well, and four wells were set for each treatment. MTT assay was performed after 24 h from inoculation: 20 μL MTT solution was added to each well under the condition away from light, and the culture was continued for 4 hours. 150 μL DMSO was added to each well after discarding the supernatant. After 15 min of dissolution, the absorbance value (OD value) was measured using a microplate reader and the relative survival rate of cells was calculated according to the following formula: […]

MDA-MB-231 cells = experiment: MTT assay, photodynamic therapy on MDA-MB-231 cells; type: cell-based, human
Text: as §1

the cell lines = experiment: MTT assay, summary over the cell lines (photosensitizer alone); type: cell-based; settings: without light irradiation; selected drug concentration range (0.8-6.4 μM)
Text: The cells in logarithmic growth phase were collected and inoculated on 24-well culture plates. When reaching 70%-80% confluence, cells were divided randomly into the following groups: control (the parallel control group without photosensitizer and irradiation), irradiation (irradiation treatment alone without photosensitizer); (photosensitizer treatment alone without irradiation), photodynamic treatment (treatment by photosensitizer in combination with irradiation). For the photosensitizer alone treatment group and photodynamic treatment group, an appropriate amount of Photohexer-1 (P-1) or Photohexer-2 (P-2) was respectively added away from light to give a final concentration of 0.8, 1.6, 3.2, 6.4 μM. Each group set 3 replicates. Cells were incubated with the active agent, different treatments were carried out according to the grouping. Three different light intensities were selected for the photodynamic treatment group, which were 2.6, 5.2 and 12.4 J/cm^2, respectively. After treatment and digestion of each group of cells, it was inoculated into a 96-well plate at 100 μL/well, and four wells were set for each treatment. […] After 15 min of dissolution, the absorbance value (OD value) was measured using a microplate reader and the relative survival rate of cells was calculated according to the following formula: […]

Caco2 cells = experiment: MTT assay, photodynamic therapy on Caco2 cells; type: cell-based, human
Text: as §1

SW-620 cells = experiment: MTT assay, photodynamic therapy on SW-620 cells; type: cell-based, human
Text: as §1

[1] = Storage stability determination; type: physicochemical; settings: 3 months of storage in dark at 2-4
Protocol: The storage stability of Photohexer-1 and Photohexer-2 was determined by conventional methods in the art.

[2] = 0.8 μM alone treatment, without irradiation
[3] = 0.8 μM combined with 2.6 J/cm^2 light irradiation
[4] = 0.8 μM combined with 5.2 J/cm^2 light irradiation
[5] = 0.8 μM combined with 10.4 J/cm^2 light irradiation
[6] = 1.6 μM alone treatment, without irradiation
[7] = 1.6 μM combined with 2.6 J/cm^2 light irradiation
[8] = 1.6 μM combined with 5.2 J/cm^2 light irradiation
[9] = 1.6 μM combined with 10.4 J/cm^2 light irradiation
[10] = 3.2 μM alone treatment, without irradiation
[11] = 3.2 μM combined with 2.6 J/cm^2 light irradiation
[12] = 3.2 μM combined with 5.2 J/cm^2 light irradiation
[13] = 3.2 μM combined with 10.4 J/cm^2 light irradiation
[14] = 6.4 μM alone treatment, without irradiation
[15] = 6.4 μM combined with 2.6 J/cm^2 light irradiation
[16] = 6.4 μM combined with 5.2 J/cm^2 light irradiation
[17] = 6.4 μM combined with 10.4 J/cm^2 light irradiation

C=Cc1c(C)c2cc3nc(cc4[nH]c(cc5nc(cc1[nH]2)C(C)=C5C(C)OCCCCCC)c(C)c4CCC(=O)[O-])C(CCC(=O)[O-])=C3C.[Na+].[Na+] (stereo not drawn) [Photohexer P-2, 4-(1-hexyloxyethyl)-6,7-bis(propionatesodium)-1,3,5,8-tetramethyl-2-vinylporphyrin]
photodynamic activity compared between P-1 and P-2 (SGC7901 cells): better than P-1 | Cell survival rate (SGC7901 cells; [2]): 100.80 ± 0.91% | Cell survival rate (SGC7901 cells; [3]): 83.27 ± 0.82% | Cell survival rate (SGC7901 cells; [4]): 76.47 ± 1.65% | Cell survival rate (SGC7901 cells; [5]): 66.13 ± 0.60% | Cell survival rate (SGC7901 cells; [6]): 97.25 ± 1.34% | Cell survival rate (SGC7901 cells; [7]): 70.77 ± 7.19% | Cell survival rate (SGC7901 cells; [8]): 60.00 ± 9.82% | Cell survival rate (SGC7901 cells; [9]): 49.32 ± 12.57% | Cell survival rate (SGC7901 cells; [10]): 82.72 ± 0.54% | Cell survival rate (SGC7901 cells; [11]): 52.91 ± 1.96% | Cell survival rate (SGC7901 cells; [12]): 41.72 ± 0.35% | Cell survival rate (SGC7901 cells; [13]): 34.58 ± 0.66% | killing effect of photodynamic therapy (SGC7901 cells; drug-dose and light-intensity dependent): obvious killing effect | sensitivity compared between P-1 and P-2 (MDA-MB-231 cells): more sensitive than P-1 | Cell survival rate (MDA-MB-231 cells; [2]): 100.17 ± 4.03% | Cell survival rate (MDA-MB-231 cells; [3]): 87.82 ± 4.09% | Cell survival rate (MDA-MB-231 cells; [4]): 71.8 ± 4.16% | Cell survival rate (MDA-MB-231 cells; [5]): 52.23 ± 4.16% | Cell survival rate (MDA-MB-231 cells; [6]): 97.69 ± 3.63% | Cell survival rate (MDA-MB-231 cells; [7]): 73.80 ± 3.22% | Cell survival rate (MDA-MB-231 cells; [8]): 49.35 ± 3.46% | Cell survival rate (MDA-MB-231 cells; [9]): 45.69 ± 3.16% | Cell survival rate (MDA-MB-231 cells; [10]): 91.44 ± 2.57% | Cell survival rate (MDA-MB-231 cells; [11]): 59.92 ± 2.94% | Cell survival rate (MDA-MB-231 cells; [12]): 46.57 ± 2.43% | Cell survival rate (MDA-MB-231 cells; [13]): 40.31 ± 2.28% | Cell survival rate (MDA-MB-231 cells; [14]): 81.55 ± 1.21% | Cell survival rate (MDA-MB-231 cells; [15]): 49.18 ± 1.33% | Cell survival rate (MDA-MB-231 cells; [16]): 40.03 ± 1.12% | Cell survival rate (MDA-MB-231 cells; [17]): 31.15 ± 0.96% | cytotoxicity of alone treatment (the cell lines): did not produce significant cytotoxicity | Cell survival rate (Caco2 cells; [2]): 99.09 ± 4.27% | Cell survival rate (Caco2 cells; [3]): 98.47 ± 3.69% | Cell survival rate (Caco2 cells; [4]): 98.57 ± 4.26% | Cell survival rate (Caco2 cells; [5]): 73.07 ± 3.86% | Cell survival rate (Caco2 cells; [6]): 98.50 ± 3.63% | Cell survival rate (Caco2 cells; [7]): 88.31 ± 2.67% | Cell survival rate (Caco2 cells; [8]): 77.26 ± 3.66% | Cell survival rate (Caco2 cells; [9]): 58.33 ± 2.60% | Cell survival rate (Caco2 cells; [10]): 94.12 ± 2.54% | Cell survival rate (Caco2 cells; [11]): 75.55 ± 2.01% | Cell survival rate (Caco2 cells; [12]): 63.08 ± 2.35% | Cell survival rate (Caco2 cells; [13]): 47.94 ± 2.31% | Cell survival rate (Caco2 cells; [14]): 88.45 ± 1.44% | Cell survival rate (Caco2 cells; [15]): 64.87 ± 1.13% | Cell survival rate (Caco2 cells; [16]): 43.88 ± 1.14% | Cell survival rate (Caco2 cells; [17]): 37.06 ± 1.54% | killing effect of photodynamic therapy (Caco2 cells; dependent on concentration and light intensity): good killing effect | Cell survival rate (SW-620 cells; [2]): 101.79 ± 4.27% | Cell survival rate (SW-620 cells; [3]): 97.58 ± 3.86% | Cell survival rate (SW-620 cells; [4]): 96.11 ± 4.06% | Cell survival rate (SW-620 cells; [5]): 92.99 ± 3.86% | Cell survival rate (SW-620 cells; [6]): 96.58 ± 3.66% | Cell survival rate (SW-620 cells; [7]): 94.77 ± 2.99% | Cell survival rate (SW-620 cells; [8]): 90.19 ± 3.18% | Cell survival rate (SW-620 cells; [9]): 84.95 ± 3.02% | Cell survival rate (SW-620 cells; [10]): 93.16 ± 2.71% | Cell survival rate (SW-620 cells; [11]): 89.07 ± 2.34% | Cell survival rate (SW-620 cells; [12]): 82.00 ± 2.62% | Cell survival rate (SW-620 cells; [13]): 68.54 ± 2.77% | Cell survival rate (SW-620 cells; [14]): 85.21 ± 1.03% | Cell survival rate (SW-620 cells; [15]): 66.83 ± 1.12% | Cell survival rate (SW-620 cells; [16]): 58.46 ± 1.23% | Cell survival rate (SW-620 cells; [17]): 47.12 ± 1.04% | storage stability (content change by HPLC test) [1]: no content change
